Experimental data as given in patent US20230020663A1, “SULFONAMIDE INHIBITORS AS CTPS1 INHIBITORS” (Step Pharma S.A.S., priority 2019, published 2023).

System: human CTPS1 versus CTPS2
Assay: Human CTPS1 versus CTPS2 selectivity assessment by RapidFire/MS analysis
Assay type: biochemical
Conditions: RapidFire/MS IC50 ratio
Method: Human CTPS1 versus CTPS2 Selectivity Assessment by RapidFire/MS Analysis.
The enzyme inhibitory activities against each target isoform of interest may be determined for the compounds of the invention using an optimised RapidFire high-throughput mass spectrometry (RF/MS) assay format. RF/MS assays for both human CTPS1 and CTPS2 may be performed in assay buffer consisting of 50 mM HEPES (Merck), 20 mM MgCl2, 5 mM KCl, 1 mM DTT, 0.01% Tween-20, pH to 8.0 accordingly. Human full-length active C-terminal FLAG-His-tag CTPS1 (UniProtKB—P17812, CTPS[1-591]-[…]) may be obtained from Proteros biostructures GmbH. Human full length active C-terminal FLAG-His-Avi tagged CTPS2 (UniProtKB-Q9NRF8, CTPS2 [1-586]-[…]) may be obtained from Harker Bio.
Human CTPS (1 or 2) protein may be prepared in 1× assay buffer to the final working protein concentration required for the reaction. A 2 uL volume per well of 2×CTPS (1 or 2) protein may be mixed with 40 nL of compound using acoustic (ECHO) delivery and incubated for 10 minutes at 25° C. Each isoform enzymatic reaction may be subsequently initiated by addition of 2 uL per well of a 2× substrate mix in assay buffer. For hCTPS1: ATP (0.3 mM), UTP (0.2 mM), GTP (0.07 mM) and L-glutamine (0.1 mM). For hCTPS2: ATP (0.1 mM), UTP (0.04 mM), GTP (0.03 mM) and L-glutamine (0.1 mM). Each mixture may be incubated for an appropriate amount of time per isoform within the determined linear phase of the reaction at 25′C. A 60 uL volume of stop solution (1% formic acid with 0.5 uM ^13C9-^15N3-CTP in H2O) may be added and the plate immediately heat-sealed and centrifuged for 10 minutes at 4,000 rpm. Following centrifugation, plates may be loaded onto the Agilent RapidFire microfluidic solid phase extraction system coupled to an API4000 triple quadrupole mass spectrometer (RF/MS) for analysis.
In all cases, the enzyme converts UTP to CTP. Highly specific and sensitive multiple reaction monitoring (MRM) MS methods may be optimised for the detection of the enzymatic reaction product, CTP, and the stable isotope labelled product standard ^13C9-^15N3-CTP. Readout for data analysis may be calculated as the ratio between the peak area of the product CTP and the internal standard ^13C9-^15N3-CTP. For data reporting, the following equation may be used: […]
For each screening plate, the means of the negative (DMSO) and positive control values were used for the calculation of the respective assay window (S/B) and Z′ values. The median of the respective control values was used for calculation of percent inhibition according to the following equation: […]
Percentage inhibition was then plotted against compound concentration, and the 50% inhibitory concentration (IC50) was determined from the resultant concentration-response curve.
Fold selectivity between CTPS1 and CTPS2 was subsequently calculated according to the following equation: […]

SMILES | Selectivity (fold selectivity between CTPS1 and CTPS2) (Table 26) | Selectivity (fold selectivity between CTPS1 and CTPS2) (Table 27)
CCOc1cncc(-c2ccc(NC(=O)C(CCOC)c3ccnc(NS(=O)(=O)C4CC4)n3)cc2)n1 (stereo not drawn) [Example P110] | ++ (>30-60 fold (++)) | –
CCOc1cncc(-c2ccc(NC(=O)C3(c4ccnc(NS(=O)(=O)C5CC5)n4)CCOCC3)nc2)n1 [Example P115, 4-(2-(Cyclopropanesulfonamido)pyrimidin-4-yl)-N-(5-(6-ethoxypyrazin-2-yl)pyridin-2-yl)tetrahydro-2H-pyran-4-carboxamide] | +++ (>60 fold (+++)) | –
CCOc1cncc(-c2ccc(C(=O)NCc3ccnc(NS(=O)(=O)C4CC4)n3)cc2)n1 [Example P118] | +++ (>60 fold (+++)) | –
CC(C)(C(=O)Nc1ccc(-c2cncc(C3CC3)n2)cn1)c1ccnc(NS(=O)(=O)C2CC2)n1 [Example P125] | ++ (>30-60 fold (++)) | –
CC(C)(C(=O)Nc1ccc(-c2cncc(C3CC3)n2)cc1F)c1ccnc(NS(=O)(=O)C2CC2)n1 [Example P128] | + (2-30 fold (+)) | –
CC(C)c1cncc(-c2ccc(NC(=O)C(C)(C)c3ccnc(NS(=O)(=O)C4CC4)n3)cc2)n1 [Example P132] | ++ (>30-60 fold (++)) | –
CCOc1cncc(-c2ccc(NC(=O)C3(c4ccnc(NS(=O)(=O)C5CC5)n4)CCCC3)nc2)n1 [Example P136] | +++ (>60 fold (+++)) | –
CCOc1cncc(-c2ccc(NC(=O)C3(c4ccnc(NS(=O)(=O)C5CC5)n4)CCOCC3)c(F)c2)n1 [Example P143] | +++ (>60 fold (+++)) | –
CCOc1cncc(-c2ccc(NC(=O)C(CCOC)c3ccnc(NS(=O)(=O)C4CC4)n3)nc2)n1 (stereo not drawn) [Example P145] | +++ (>60 fold (+++)) | –
CCOc1cncc(-c2ccc(NC(=O)C(CCOC)c3ccnc(NS(=O)(=O)C4CC4)n3)c(F)c2)n1 (stereo not drawn) [Example P146] | +++ (>60 fold (+++)) | –
CCOc1cncc(-c2ccc(NC(=O)C(F)(CC)c3ccnc(NS(C)(=O)=O)n3)nc2)n1 (stereo not drawn) [Example P151] | +++ (>60 fold (+++)) | –
CCOc1cncc(-c2cnc(NC(=O)C(CC)c3ccnc(NS(=O)(=O)C4CC4)n3)c(C)c2)n1 (stereo not drawn) [Example P155] | + (2-30 fold (+)) | –
CCC(C(=O)Nc1ncc(-c2cncc(OC)n2)cc1F)c1ccnc(NS(=O)(=O)C2CC2)n1 (stereo not drawn) [Example P158] | + (2-30 fold (+)) | –
CCC(C(=O)Nc1ccc(-c2cncc(OC)n2)cn1)c1ccnc(NS(=O)(=O)C2CC2)n1 (stereo not drawn) [Example P159] | +++ (>60 fold (+++)) | –
CCOc1cncc(-c2ccc(NC(=O)C(CC)c3ccnc(NS(=O)(=O)C4CC4)n3)c(C)c2)n1 (stereo not drawn) [Example P161] | + (2-30 fold (+)) | –
CCOc1cncc(-c2cnc(NC(=O)C(CC)c3ccnc(NS(=O)(=O)C4CC4)n3)c(F)c2)n1 (stereo not drawn) [Example P162] | ++ (>30-60 fold (++)) | –
CCOc1cncc(-c2ccc(NC(=O)C(C)(CC)c3ccnc(NS(=O)(=O)C4CC4)n3)nc2)n1 (stereo not drawn) [Example P163] | +++ (>60 fold (+++)) | –
CCOc1cncc(-c2ccc(NC(=O)C(OC)c3ccnc(NS(=O)(=O)C4CC4)n3)cc2)n1 (stereo not drawn) [Example P164] | + (2-30 fold (+)) | –

SMILES | Selectivity (fold selectivity between CTPS1 and CTPS2) (Table 26) | Selectivity (fold selectivity between CTPS1 and CTPS2) (Table 27)
CCOc1cncc(-c2ccc(NC(=O)C(CC)c3cccc(NS(=O)(=O)C4CC4)n3)nc2)n1 (stereo not drawn) [Example P188] | ++ (>30-60 fold (++)) | –
CCOc1cncc(-c2ccc(NC(=O)C(CC)c3cccc(NS(=O)(=O)C4CC4)n3)cc2)n1 (stereo not drawn) [Example P191] | ++ (>30-60 fold (++)) | –
CCOc1cncc(-c2ccc(NC(=O)C(C)(C)c3cncc(NS(=O)(=O)C4CC4)n3)nc2)n1 [Example P195] | +++ (>60 fold (+++)) | –
CCOc1cncc(-c2ccc(NC(=O)C(C)(C)c3cncc(NS(=O)(=O)C4CC4)n3)cc2)n1 [Example P196] | +++ (>60 fold (+++)) | –
CCOc1cncc(-c2ccc(NC(=O)C3(c4cncc(NS(=O)(=O)C5CC5)n4)CCOCC3)nc2)n1 [Example P197] | +++ (>60 fold (+++)) | –
CCOc1cncc(-c2ccc(NC(=O)C(C)(CCOC)c3cncc(NS(=O)(=O)C4CC4)n3)nc2)n1 (stereo not drawn) [Example P198] | +++ (>60 fold (+++)) | –
CCOc1cncc(-c2ccc(NC(=O)C(F)(CC)c3cncc(NS(=O)(=O)C4CC4)n3)nc2)n1 (stereo not drawn) [Example P200] | ++ (>30-60 fold (++)) | –
CCOc1cncc(-c2ccc(NC(=O)C(CC)c3cncc(NS(=O)(=O)C4CC4)n3)nc2)n1 (stereo not drawn) [Example P201] | +++ (>60 fold (+++)) | –
CCOc1cncc(-c2ccc(NC(=O)C(CC)c3cncc(NS(=O)(=O)C4CC4)n3)cc2)n1 (stereo not drawn) [Example P202] | +++ (>60 fold (+++)) | –
CCOc1cncc(-c2ccc(NC(=O)C(C)(OC)c3cncc(NS(=O)(=O)C4CC4)n3)nc2)n1 (stereo not drawn) [Example P205a] | +++ (>60 fold (+++)) | –
CCOc1cncc(-c2ccc(NC(=O)C(C)(OC)c3cncc(NS(=O)(=O)C4CC4)n3)nc2)n1 (stereo not drawn) [Example P205b] | ++ (>30-60 fold (++)) | –
CCOc1cncc(-c2ccc(C(=O)NC(CC)c3ccnc(NS(=O)(=O)C4CC4)n3)c(F)c2)n1 (stereo not drawn) [Example P216] | +++ (>60 fold (+++)) | –
CC(C)Oc1cncc(-c2ccc(C(=O)NC(C)(C)c3cncc(NS(=O)(=O)C4CC4)n3)c(F)c2)n1 [Example P221] | + (2-30 fold (+)) | –
CC(C)(NC(=O)c1ccc(-c2cncc(C(F)(F)F)n2)cc1)c1cncc(NS(=O)(=O)C2CC2)n1 [Example P222] | + (2-30 fold (+)) | –
CCOc1cncc(-c2ccc(NC(=O)C3(c4ccnc(NS(=O)(=O)C5CC5)n4)CCC(=O)CC3)nc2)n1 [Example P226, 1-(2-(Cyclopropanesulfonamido)pyrimidin-4-yl)-N-(5-(6-ethoxypyrazin-2-yl)pyridin-2-yl)-4-oxocyclohexanecarboxamide] | – | +++ (>60 fold (+++))
CCOc1cncc(-c2ccc(NC(=O)C3(c4ccnc(NS(=O)(=O)C5CC5)n4)CCC(F)(F)CC3)nc2)n1 [Example P242] | – | +++ (>60 fold (+++))
CCOc1cncc(-c2ccc(NC(=O)C3(c4ccnc(NS(=O)(=O)C5CC5)n4)CCC4(CC3)OCCO4)nc2)n1 [Example P244, 8-(2-(cyclopropanesulfonamido)pyrimidin-4-yl)-N-(5-(6-ethoxypyrazin-2-yl)pyridin-2-yl)-1,4-dioxaspiro[4.5]decane-8-carboxamide] | – | +++ (>60 fold (+++))
CCOc1cncc(-c2ccc(NC(=O)C3(c4ccnc(NS(=O)(=O)C5CC5)n4)CCN(S(C)(=O)=O)CC3)nc2)n1 [Example P251] | – | +++ (>60 fold (+++))
